Experimental data published in patent US20240034729A9, “HETEROCYCLIC COMPOUND, INTERMEDIATE, PREPARATION METHOD THEREFOR AND APPLICATION THEREOF” (WUHAN LL SCIENCE AND TECHNOLOGY DEVELOPMENT CO., LTD., priority 2018, published 2024).

Molecular target: hP2X3 (human purinergic P2X receptor subtype 3) (Homo sapiens (Human), UniProt P56373)
Assay: FLIPR calcium assay, hP2X3 expressed in HEK293 cells
Assay type: cell-based
Settings: HEK293 cells expressing hP2X3, agonist BZ-ATP 2.5 μM; class symbols; read-out: P2X3 IC50

Chain of hP2X3 (human purinergic P2X receptor subtype 3) (P56373 whole entry): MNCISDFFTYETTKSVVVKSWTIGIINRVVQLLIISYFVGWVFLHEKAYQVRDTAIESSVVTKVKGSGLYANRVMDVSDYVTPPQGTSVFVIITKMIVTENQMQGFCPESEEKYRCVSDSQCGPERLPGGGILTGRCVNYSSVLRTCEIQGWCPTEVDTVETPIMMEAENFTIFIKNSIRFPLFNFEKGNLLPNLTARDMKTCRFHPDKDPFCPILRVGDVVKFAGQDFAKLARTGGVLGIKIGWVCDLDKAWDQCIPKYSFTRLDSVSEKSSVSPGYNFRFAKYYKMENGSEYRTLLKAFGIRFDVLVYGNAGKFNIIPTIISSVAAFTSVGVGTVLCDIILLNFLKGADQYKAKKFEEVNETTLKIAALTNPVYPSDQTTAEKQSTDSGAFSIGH

| Molecule | IC50 |
| --- | --- |
| CNC(=O)c1cc(F)c(-c2[nH]c3cc(C)ccc3c2C[C@H]2CN(C(=O)OC)CCO2)c(F)c1 [Compound 39] | 0.2 to 5 µM |
| COC(=O)N1CCO[C@@H](Cc2c(-c3c(F)cc(-n4ccc(C5(C(=O)O)CC5)n4)cc3F)nc3cc(C)ccn23)C1 [Compound 130, (S)-1-(1-(3,5-difluoro-4-(3-((4-(carbomethoxy<methoxycarbonyl>)morpholin-2-yl)methyl)-7-methylimidazo[1,2-a]pyridin-2-yl)phenyl)-1H-pyrazol-3-yl)cyclopropane-1-carboxylic acid] | 0.2 to 5 µM |
| CNC(=O)c1ccc(-c2nc3cc(C)ccn3c2C[C@H]2CN(C(=O)OC)CCO2)s1 [Compound 21, methyl (S)-2-((7-methyl-2-(5-(methylcarbamoyl)thiophen-2-yl)imidazo[1,2-a]pyridin-3-yl)methyl)morpholine-4-carboxylate] | 0.2 to 5 µM |
| COC(=O)N1CCO[C@@H](Cc2c(-c3c(F)cc(-c4nc(C(C)(C)O)c[nH]4)cc3F)nc3cc(C)ccn23)C1 [Compound 115] | 0.2 to 5 µM |
| CNC(=N)c1cc(F)c(-c2nc3cc(C)ccn3c2C[C@H]2CN(C(=O)OC)CCO2)c(F)c1 [Compound 8, methyl (S)-2-((2-(2,6-difluoro-4-(N-methylcarbamimidoyl)phenyl)-7-methylimidazo[1,2-a]pyridin-3-yl)methyl)morpholine-4-carboxylate] | 0.2 to 5 µM |
| COC(=O)N1CCO[C@@H](Cc2c(-c3c(F)cc(-c4nc(C5(O)CC5)co4)cc3F)nc3cc(C)ccn23)C1 [Compound 118] | 0.2 to 5 µM |
| CNC(=O)c1cc(F)c(-c2nc3cc(C)ccn3c2C[C@H]2CN(C(=O)OC)CCN2)c(F)c1 [Compound 46] | 0.2 to 5 µM |
| COC(=O)N1CCO[C@@H](Cc2c(-c3c(F)cc(O)cc3F)nc3cc(C)ccn23)C1 [Compound 35, methyl (S)-2-((2-(2,6-difluoro-4-hydroxyphenyl)-7-methylimidazo[1,2-a]pyridin-3-yl)methyl)morpholine-4-carboxylate] | 0.2 to 5 µM |
| COC(=O)N1CCO[C@@H](Cc2c(-c3c(F)cc(N4CCN(C)CC4=O)cc3F)nc3cc(C)ccn23)C1 [Compound 45, methyl (S)-2-((2-(2,6-difluoro-4-(4-methyl-2-oxopiperazin-1-yl)phenyl)-7-methylimidazo[1,2-a]pyridin-3-yl)methyl) morpholine-4-carboxylate] | 0.2 to 5 µM |
| COC(=O)N1CCO[C@@H](Cc2c(-c3cnc(NC(C)=O)[nH]3)nc3cc(C)ccn23)C1 [Compound 1] | 0.2 to 5 µM |
| CNC(=O)Oc1cc(F)c(-c2nc3cc(C)ccn3c2C[C@H]2CN(C(=O)OC)CCO2)c(F)c1 [Compound 36, methyl (S)-2-((2-(2,6-difluoro-4-(methylcarbamoyloxy)phenyl)-7-methylimidazo[1,2-a]pyridin-3-yl)methyl)morpholine-4-carboxylate] | 0.01 to 0.05 µM |
| CNC(=O)c1cc(F)c(-c2nc3cc(C)ccn3c2CC(N)=O)c(F)c1 [Compound 19, 4-(3-(2-amino-2-oxoethyl)-7-methylimidazo[1,2-a]pyridine)-3,5-difluorobenzoylmethylamine] | 0.2 to 5 µM |
| CNC(=O)c1cc(F)c(-c2nc3cc(C)ccn3c2CN2CCNC(=O)C2)c(F)c1 [Compound 31] | 0.2 to 5 µM |
| CNC(=O)c1cc(F)c(-c2nc3cc(C)ccn3c2CN2CCOCC2=O)c(F)c1 [Compound 47, 3,5-difluoro-N-methyl-4-(7-methyl-3-((3-oxo-4-morpholinyl)methyl)imidazo[1,2-a]pyridin-2-yl)benzamide] | 0.2 to 5 µM |
| COC(=O)N1CCO[C@@H](Cc2c(-c3c(F)cc(-n4nccc4C#N)cc3F)nc3cc(C)ccn23)C1 [Compound 124-2] | ≤ 0.01 µM |

Same assay, conditions: read-out: P2X3 IC50

| Molecule | IC50 |
| --- | --- |
| COC(=O)N1CCO[C@@H](Cc2c(-c3c(F)cc(NC(=O)CC(C)(C)O)cc3F)nc3cc(C)ccn23)C1 [Compound 90] | 0.01 to 0.05 µM |
| CNC(=O)c1cc(F)c(-c2nc3cc(C)ccn3c2CN2CCNCC2=O)c(F)c1 [Compound 48, (S)-2-((2-(2,6-difluoro-4-(methylcarbamoyl)phenyl)-7-methylimidazo[1,2-a]pyridin-3-yl)methyl)-2-carbonyl-piperazine] | 0.05 to 0.2 µM |
| CNC(=O)c1cc(F)c(-c2nn3cc(C)ccc3c2C[C@H]2CN(C(=O)OC)CCO2)c(F)c1 [Compound 57] | < 0.01 µM |
| COC(=O)N1CCO[C@@H](Cc2c(-c3c(F)cc(-n4cc(N)cn4)cc3F)nc3cc(C)ccn23)C1 [Compound 127, methyl (S)-2-((2-(4-(4-amino-1H-pyrazol-1-yl)-2,6-difluorophenyl)-7-methylimidazo[1,2-a]pyridin-3-yl)methyl)morpholine-4-carboxylate] | < 0.01 µM |
| COC(=O)N1CCO[C@@H](Cc2c(-c3c(F)cc(N4C=CCC4=O)cc3F)nc3cc(C)ccn23)C1 [Compound 100] | 0.01 to 0.05 µM |
| COC(=O)N1CCO[C@@H](Cc2c(-c3c(F)cc(-c4nc(C(F)(F)F)c[nH]4)cc3F)nc3cc(C)ccn23)C1 [Compound 37, methyl (S)-2-((2-(2,6-difluoro-4-(4-trifluoromethyl-1H-imidazol-2-yl)phenyl)-7-methylimidazo[1,2-a]pyridin-3-yl)methyl)morpholine-4-carboxylate] | < 0.01 µM |
| COC(=O)N1CCO[C@@H](Cc2c(-c3c(F)cc(Nc4ccc(F)o4)cc3F)nc3cc(C)ccn23)C1 [Compound 73] | 0.05 to 0.2 µM |
| COC(=O)N1CCO[C@@H](Cc2c(-c3c(F)cc(-c4ccc(C(=O)O)cn4)cc3F)nc3cc(C)ccn23)C1 [Compound 145] | 0.05 to 0.2 µM |
| COC(=O)N1CCO[C@@H](Cc2c(-c3c(F)cc(NC(=O)CC4(C(=O)O)CC4)cc3F)nc3cc(C)ccn23)C1 [Compound 95] | 0.01 to 0.05 µM |
| COC(=O)N1CCO[C@@H](Cc2c(-c3c(F)cc(C4(C(N)=O)CC4)cc3F)nc3cc(C)ccn23)C1 [Compound 65] | 0.05 to 0.2 µM |
| COC(=O)N1CCO[C@@H](Cc2c(-c3c(F)cc(-n4ccc(C5(O)CC5)n4)cc3F)nc3cc(C)ccn23)C1 [Compound 131] | 0.01 to 0.05 µM |
| CCC(=O)N1CCO[C@@H](Cc2c(-c3c(F)cc(NC(C)=O)cc3F)nc3cc(CF)ccn23)C1 [Compound 155] | < 0.01 µM |
| COC(=O)N1CCO[C@@H](Cc2c(-c3c(F)cc(-n4ccc(C(=O)O)n4)cc3F)nc3cc(C)ccn23)C1 [Compound 125, (S)-1-(3,5-difluoro-4-(3-((4-(methoxycarbonyl)morpholin-2-yl)methyl)-7-methylimidazo[1,2-a]pyridin-2-yl)phenyl)-1H-pyrazole-3-carboxylic acid] | < 0.01 µM |
| COC(=O)N1CCO[C@@H](Cc2c(-c3c(F)cc(NC(=O)c4ccc(C(=O)O)cc4)cc3F)nc3cc(C)ccn23)C1 [Compound 85, (S)-4-((3,5-difluoro-4-(3-((4-(carbomethoxy<methoxycarbonyl>)morpholin-2-yl)methyl)-7-methylimidazo[1,2-a]pyridin-2-yl)phenyl)carbamoyl)benzoic acid] | 0.05 to 0.2 µM |
| COC(=O)N1CCO[C@@H](Cc2c(-c3c(F)cc(NC(=O)CC4(C#N)CC4)cc3F)nc3cc(C)ccn23)C1 [Compound 96] | 0.01 to 0.05 µM |
| (S,E)-4-((3,5-difluoro-4-(3-((4-(methoxycarbonyl)-morpholin-2-yl)-methyl)-7-methylimidazo[1,2-a]pyri din-2-yl)-phenyl)-amino)-4-oxobutyl-2-enoic acid [Compound 27] | < 0.01 µM |
| COC(=O)N1CCO[C@@H](Cc2c(-c3c(F)cc(-c4nc(S(N)(=O)=O)c[nH]4)cc3F)nc3cc(C)ccn23)C1 [Compound 105] | < 0.01 µM |
| COC(=O)N1CCO[C@@H](Cc2c(-c3c(F)cc(S(N)(=O)=O)cc3Cl)nc3cc(Cl)ccn23)C1 [Compound 179, methyl (S)-2-((7-chloro-2-(2-chloro-6-fluoro-4-sulfamoylphenyl)imidazo[1,2-a]pyridin-3-yl)methyl)morpholine-4-carboxylate] | 0.0004 µM |
| COC(=O)N1CCO[C@@H](Cc2c(-c3c(F)cc(NS(C)(=O)=O)cc3F)nc3cc(C)ccn23)C1 [Compound 152] | < 0.01 µM |
| CCC(=O)N1CCO[C@@H](Cc2c(-c3c(F)cc(NC(C)=O)cc3F)nc3cc(C)ccn23)C1 [Compound 156] | < 0.01 µM |
| COC(=O)N1CCC[C@@H](Cc2c(-c3c(F)cc(S(N)(=O)=O)cc3F)nc3cc(Cl)ccn23)C1 [Compound 188] | 0.009 µM |
| CNC(=O)c1cc(F)c(-c2oc3nc(C)ccc3c2C[C@H]2CN(C(=O)OC)CCO2)c(F)c1 [Compound 56, methyl (S)-2-((2-(2,6-difluoro-4-(methylcarbamoyl)phenyl)-6-methylfurano[2,3-b]pyridin-3-yl)methyl)morpholine-4-carboxylate] | < 0.01 µM |
| COC(=O)N1CCO[C@@H](Cc2c(-c3c(F)cc(-n4cnc(C#N)c4)cc3F)nc3cc(C)ccn23)C1 [Compound 192, methyl (S)-2-((2-(4-(4-cyano-1H-imidazol-1-yl)-2,6-difluorophenyl)-7-methylimidazo[1,2-a]pyridin-3-yl)methyl)morpholine-4-carboxylate] | 0.01 to 0.05 µM |
| COC(=O)c1cc(F)c(-c2nc3cc(C)ccn3c2C[C@H]2CN(C(=O)OC)CCO2)c(F)c1 [Compound 49, methyl (S)-2-((2-(2,6-difluoro-4-carbomethoxyphenyl)-7-methylimidazo[1,2-a]pyridin-3-yl)-methyl)morpholine-4-carboxylate] | < 0.01 µM |
| Cc1ccn2c(Cc3cc(C#N)ccn3)c(-c3c(F)cc(S(N)(=O)=O)cc3F)nc2c1 [Compound 186] | 0.065 µM |
| COC(=O)N1CCO[C@@H](Cc2c(-c3ccc(S(N)(=O)=O)nc3Cl)nc3cc(C)ccn23)C1 [Compound 190] | < 0.01 µM |
| COC(=O)N1CCO[C@@H](Cc2c(-c3c(F)cc(NC(=O)C#CC(=O)O)cc3F)nc3cc(C)ccn23)C1 [Compound 88] | 0.01 to 0.05 µM |
| CNC(c1cc(F)c(-c2nc3cc(C)ccn3c2C[C@H]2CN(C(=O)OC)CCO2)c(F)c1)C(F)(F)F (stereo partly drawn) [Compound 68, methyl (S)-2-((2-(2,6-difluoro-4-(2,2,2-trifluoro-1-(methylamino)ethyl)phenyl)-7-methylimidazo[1,2-a]pyridin-3-yl)methyl)morpholine-4-carboxylate] | 0.01 to 0.05 µM |
| COC(=O)N1CCO[C@@H](Cc2c(-c3c(F)cc(-c4ncco4)cc3F)nc3cc(CF)ccn23)C1 [Compound 123] | 0.05 to 0.2 µM |
